The values that follow are results of earlier work, collected in patent publication US20170368087A1, “PHARMACEUTICAL COMPOSITION COMPRISING TOPIRAMATE” (INNOVACO PHARMACEUTICALS, INC., priority 2014, published 2017).

SMILES strings stand for the structures.

On to `CC1(C)O[C@@H]2[C@@H](CO[C@@]3(COS(N)(=O)=O)OC(C)(C)O[C@@H]23)O1` [Topiramate, 2,3:4,5-Di-O-isopropylidene-β-D-fructo-pyranose sulfamate], for which the “solubility in acetone, dimethyl sulfoxide, ethanol, and alkaline solutions containing sodium hydroxide or sodium phosphate” value is on record as “freely soluble”. Besides, the solubility in water result (room temperature) was “approximately 9.8 mg/mL”.
